Test results: paper PMC7746742, “The novel rexinoid MSU-42011 is effective for the treatment of preclinical Kras-driven lung cancer” (Scientific Reports, 2020)

Legend:
iNOS = iNOS inhibition assay (LPS-induced NO production, Griess reaction); format: cell-based, murine; conditions: Mus musculus; RAW264.7 cells, 0–1000 nM rexinoids, LPS 1 ng/ml 24 h, NO by Griess assay; mean ± SE of 3 experiments; read-out: iNOS suppression IC50
Description: To evaluate the anti-inflammatory effects of the novel rexinoids, we utilized the iNOS suppression assay. Inhibition of iNOS in vitro directly correlates with efficacy in our preclinical model of Kras-driven lung cancer. RAW264.7 macrophage-like cells were treated with 0–1 μM rexinoids and stimulated with 1 ng/mL lipopolysaccharide for 24 h, and then NO was measured in the media.
RAW264.7 cells were plated in 96-well plates (20,000 cells/well). After overnight attachment, cells were treated with twofold serial dilutions (0–1000 nM) of rexinoids. After a 20 min incubation at 37 °C, cells were stimulated with 1 ng/mL LPS for 24 h. NO production was measured in culture medium using the Griess reaction. IC50 values were calculated using GraphPad Prism 8.1.2 software for Windows using a log([nM drug concentration]) vs. response curve fit.

Kras-driven lung tumors = test: Treatment of established vinyl carbamate-induced lung adenocarcinomas in A/J mice; format: in vivo
Description: All experiments were performed ethically in accordance with the best practices and AAALAC-accredited Standards for the Management of Laboratory Animals at Michigan State University (MSU). These standards include making every effort to minimize suffering. Mice were euthanized by inhalation of carbon dioxide followed by removal of the lungs. All animal protocols were approved by the Institutional Animal Care and Use Committee (IACUC, protocol 201,800,050)) at MSU. At 7 and 8 weeks of age, A/J female mice (Jackson Laboratories) were injected i.p. with vinyl carbamate (Toronto Research Chemicals, 0.32 mg/mouse). Mice were fed a semi-synthetic diet (AIN-93G BioServ, Flemington NJ), beginning one week before initiation with vinyl carbamate and then for 8 weeks after the first injection. The mice were then randomized into groups (n = 15 mice/group) and fed treatment diets (100 mg rexinoid/kg AIN-93G diet or ~ 25 mg/kg body weight) for 12 weeks. Rexinoids were dissolved in a vehicle of 12.5 ml ethanol and 37.5 ml Neobee oil (Spectrum Chemical, Gardena CA) per kg AIN-93G diet. Six total doses of paclitaxel (Fisher; 15 mg/kg i.p.) and then carboplatin (Fisher; 50 mg/kg i.p.) were given every other week, beginning 9 weeks after injection with vinyl carbamate. After 12 weeks on the treatment diets, blood and lungs were harvested. Lungs were inflated with PBS and surface lesions counted. The left lung was fixed in neutral-buffered formalin (NBF), then sample numbers blinded and randomized. Grossly visible lung tumors on the surface of the left lung were counted. The left lung was embedded in paraffin, step-sectioned (6 sections/lung, 200 microns apart) and then stained with Haemotoxylin and Eosin (H&E). The number, size, and histopathology of tumors on the slides were then evaluated as described. The right lobes of the lung were divided into halves. One half was analyzed by flow cytometry and the other half flash frozen (CO2 and ethanol bath) and stored at − 80 °C.
At 11, 15, and 20 weeks after initiation, anesthesia was induced using 2–4% isofluorane in oxygen at 0.8–2 L/min in a chamber and then maintained using 1.5–2% isofluorane in oxygen at 0.8 L/min using a nosecone. Animals were kept on a heating pad or a heated platform while under anesthesia. Fur was removed from the thoracic area using a chemical depilitory (Nair) immediately prior to imaging. A Vevo 2100 (Fujifilm VisualSonics) high-frequency ultrasound with a MS550D 40 MHz transducer was used to image lung tumors.

[1] = Steady state drug levels in plasma after 12 weeks on diet (HPLC-MS); format: in vivo, A/J mice; conditions: A/J, mouse, oral, 100 mg/kg diet for 12 weeks, LC-MS, n = 8, mean ± SE
Description: Blood was collected via cardiac puncture into 1 ml lithium heparin tubes (Greiner Bio-one). Blood was centrifuged at 5000 g for 5 min at 4 °C. Plasma was separated and frozen at − 80 °C until processed as described. Acetonitrile was added to precipitate plasma proteins. Samples were centrifuged at 14,000 g for 5 min, and the supernatant was filtered with a 0.2 µm syringe filter. Each sample was dried overnight and reconstituted in 200 µl of 50:50 methanol:water solution for analysis via HPLC. HPLC was performed on a Quatro Premier instrument with an Ascentis Express C18 column and an Acquity UPLC system. The mobile phase A consisted of 10 mM aq. ammonium acetate and the mobile phase B consisted of methanol. The following gradient was applied 99–5% A (0–4 min), 5% A (4–5.1 min), 5–99% A (5.1–6 min). The flow rate was 0.3 ml/minute, and bexarotene and MSU-42011 were detected at ~ 4.5 min. A standard curve was prepared by processing plasma from untreated animals and spiking the samples with 0.1–3 μM of the appropriate rexinoid then reconstituting the samples.

[2] = Lipid levels in plasma (triglyceride and cholesterol kits); format: in vivo, A/J mice; conditions: 100 mg/kg diet for 12 weeks, n = 8, mean ± SE
Description: Triglyceride and cholesterol levels in plasma (n = 8 mice/group) harvested at necropsy were measured using the Triglyceride Quantification Assay Kit (Abcam) or the Cholesterol Quantification Kit (Sigma-Aldrich), respectively, using the recommended protocol supplied by the manufacturer.

A549 lung cancer cells = test: MTT proliferation assay; format: cell-based, human; conditions: 0–1 μM rexinoids, 72 hr
Description: were treated with 0-1 μM rexinoids for 72 hr. Proliferation was measured using the MTT assay.
MTT Assay. A549 cells were plated in 96-well plates (2,000 cells/well). After overnight attachment, cells were treated with 2 fold dilutions (0-1000 nM rexinoids) for 72 hr. 50 μL 3-(4,5-dimethylthiazol-2-yl)-2,5-diphenyltetrazolium bromide (MTT; Sigma M2128) was added to each well, and cells were incubated at 37 °C for 4 hr. Media was removed and cells were lysed with developing solution (0.04 M HCl in isopropanol). Plates were read at 550 nm.
(also on this page, place not known: 110A549 Cell Proliferation (% DMSO Control) 37°C)

[3] = Plasma triglycerides in MMTV-neu mice fed rexinoids; format: in vivo; conditions: MMTV-neu mice fed rexinoids for 10 days, n=5-6 mice/group
Description: fold expression triglyceride
Supplemental Fig 1. Correlation of SREPB mRNA expression and triglyceride levels. HepG2 human liver cells were treated with 300 nM of rexinoids for 8 hr,and lysates analyzed by RT-PCR. Triglycerides in plasma from MMTV-neu mice fed rexinoids for10 days were measured using a commercial kit(Abcam). *, p <0.01 vs control; **, p<0.05 vs bex and LG268; n=5-6 mice/group.

[4] = rexinoids 100 mg/kg diet 12 weeks, C/P i.p. x6
[5] = rexinoids 100 mg/kg diet 12 weeks, C/P i.p. x6, mean ± SE
[6] = tumor histopathology, 12 weeks of treatment

IC50 (iNOS): 143 ± 19 nM
concentration at 12 weeks [1]: 81.2 ± 14.9 nM
Cholesterol in plasma [2]: 1.99 ± 0.1ǂ µg/µL
Triglycerides in plasma [2]: 2.21 ± 0.16ǂ nmol/µL
Cholesterol in plasma ([2]; listed as bexarotene): 1.99 ± 0.1 µg/µL
Triglycerides in plasma ([2]; listed as bexarotene): 2.21 ± 0.16 nmol/µL
Plasma triglyceride levels in mice [3]: 2.38 ± 0.3 nmol/µL
SMILES: C=C(c1ccc(C(=O)O)cc1)c1cc2c(cc1C)C(C)(C)CCC2(C)C [Bexarotene]
Single agent activity in this model (Kras-driven lung tumors; 100 mg/kg diet, 12 weeks): inactive
Tumor grades compared to the controls (Kras-driven lung tumors; 12 weeks of treatment): no differences
Average # tumors/slide (Kras-driven lung tumors; rexinoids 100 mg/kg diet 12 weeks, C 50 mg/kg and P 15 mg/kg i.p. x6, mean ± SE): 3.37 ± 0.3
Average # tumors/slide (% control) (Kras-driven lung tumors; [4]): 79%
Average tumor burden (% control) (Kras-driven lung tumors; [4]): 78%
Average tumor size (% control) (Kras-driven lung tumors; [4]): 100%
Average tumor burden (Kras-driven lung tumors; [5]): 0.72 ± 0.2 mm^3
Average tumor size (Kras-driven lung tumors; [5]): 0.22 ± 0.04 mm^3
# High grade tumors (Kras-driven lung tumors; [6]): 71
# Low grade tumors (Kras-driven lung tumors; [6]): 1 (1%)
# Medium grade (Kras-driven lung tumors; [6]): 29 (29%)
High grade tumors (% total) (Kras-driven lung tumors; [6]): 70%
Low grade tumors (% total) (Kras-driven lung tumors; [6]): 1 (1%)
Medium grade (% total) (Kras-driven lung tumors; [6]): 29 (29%)
Growth / proliferation of A549 lung cancer cells (A549 lung cancer cells): do not inhibit proliferation
